Experimental data as given in patent US7045497B1, “Use of peptide” (Takeda Chemical Industries, Ltd., priority 1998, dated 2006).
No end group written: not given here.

Tested on: oxytocin secretion
Experiment: Effect of third intraventricular administration of PrRP (19P2-L31) on amount of oxytocin secreted in plasma (radioimmunoassay)
Format: in vivo, Mature male Wistar rats
Protocol: Mature male Wistar rats (weighing 350 to 380 g at the time of surgery) were anesthetized by intraperitoneal administration of 50 mg/kg pentobarbital, and were fixed in a rat brain stereotactic instrument. The brace bar was lowered 3.3 mm from the intra-oral line. The cranial bone was exposed, and a dental drill was used to perforate the bone in order to implant a guide cannula AG-12 (inside diameter 0.4 mm, outside diameter 0.5 mm, Eicom) into the third ventricle. Anchor screws were embedded in four locations around the cannula. The stainless steel guide cannula AG-12 was inserted to a position at the top of the third ventricle. Position coordinates were AP: +7.1 mm, L: 0.0 mm, and H: +2.0 mm, in accordance with the atlas of Paxinos and Watson (1986). The guide cannula was secured to the cranial bone using instant adhesive, dental cement, and the anchor screws. A stainless steel dummy cannula AD-12 (outside diameter 0.35 mm, Eicom) was inserted into the guide cannula and secured with a cap nut (Eicom). Following surgery, the rats were bred in individual cages.
Animal were given about 1 week to recover after implantation of the guide cannulas, and blood was drawn as the animals were allowed to move freely. Rats which had undergone the aforementioned surgery were anesthetized by intraperitoneal administration of 50 mg/kg pentobarbital. […]

PrRP (19P2-L31): physiologically active peptide, ligand for G protein-coupled receptors phGR3 (GPR10) and UHR-1; described in Nature 393:272–276 (1998) and WO 97/24436 (SRTHRHSMEIRTPDINPAWYASRGIRPVGRF; ends and bridges not checked; UniProt P81277 23-53, looked up)
oxytocin concentration in blood relative to control group (rat, 10 nmol to the third ventricle, 5 minutes after administration, FIG. 2): about 2 times
oxytocin concentration in blood after intraventricular administration (rats, intraventricular administration, result in words): elevated oxytocin concentration in blood
